The supplement of paper PMC10307832

Experiments:
Test in all cases: relative viability (nuclei count vs DMSO), 5 days (fraction); higher = more cells survive
[1] = compound: CS(=O)(=O)CCNCc1ccc(-c2ccc3ncnc(Nc4ccc(OCc5cccc(F)c5)c(Cl)c4)c3c2)o1 [Lapatinib] + C[C@@H](Oc1cc(-c2cnn(C3CCNCC3)c2)cnc1N)c1c(Cl)ccc(F)c1Cl [Crizotinib] (partner 1 µM)
Method in brief: (§1)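 Lung cancer cell lines, seeded in 1536-well plates, were treated the following day by pin tool with a single drug or with five library-drug doses (not always all listed) in √10 steps on top of a fixed anchor-drug dose. Cells were fixed and nuclei stained in one step after 5 days, and nuclei were counted. Relative viability is the nuclei count for treated wells divided by that for vehicle wells, reported as medians of duplicate plates.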

[2] = compound: CC1=NC=CC(=C1)C2=CC=C(C=C2)CC(=O)NC3=CC=C(C=C3)C4=CN=CC=C4 [Wnt-C59] + CS(=O)(=O)CCNCc1ccc(-c2ccc3ncnc(Nc4ccc(OCc5cccc(F)c5)c(Cl)c4)c3c2)o1 [Lapatinib] (partner 2 µM)
Method in brief: as §1

[3] = compound: CS(=O)(=O)CCNCc1ccc(-c2ccc3ncnc(Nc4ccc(OCc5cccc(F)c5)c(Cl)c4)c3c2)o1 [Lapatinib] + CC(C)C[C@H](NC(=O)[C@H](Cc1ccccc1)NC(=O)c1cnccn1)B(O)O [Bortezomib] (partner 0.002 µM)
Method in brief: as §1

[4] = compound: CS(=O)(=O)CCNCc1ccc(-c2ccc3ncnc(Nc4ccc(OCc5cccc(F)c5)c(Cl)c4)c3c2)o1 [Lapatinib] + NC(=O)Nc1cc(-c2cccc(F)c2)sc1C(=O)N[C@H]1CCCNC1 [AZD7762] (partner 0.2 µM)
Method in brief: as §1

Row | Cell Line | relative viability ([1]; first compound 0.02 µM) | relative viability ([1]; first compound 0.06325 µM) | relative viability ([1]; first compound 0.2 µM) | relative viability ([1]; first compound 0.6325 µM) | relative viability ([1]; first compound 2 µM) | relative viability ([2]; first compound 0.001 µM) | relative viability ([2]; first compound 0.01 µM) | relative viability ([2]; first compound 0.03162 µM) | relative viability ([2]; first compound 0.1 µM) | relative viability ([3]; first compound 0.02 µM) | relative viability ([3]; first compound 0.06325 µM) | relative viability ([3]; first compound 0.2 µM) | relative viability ([3]; first compound 0.6325 µM) | relative viability ([3]; first compound 2 µM) | relative viability ([4]; first compound 0.02 µM) | relative viability ([4]; first compound 0.06325 µM) | relative viability ([4]; first compound 0.2 µM) | relative viability ([4]; first compound 0.6325 µM) | relative viability ([4]; first compound 2 µM)
1 | A549 | 0.735 | 0.675 | 0.73 | 0.674 | 0.616 | 1.04 | 1.02 | 0.966 | 0.988 | – | – | – | – | – | – | – | – | – | –
2 | COR-L23 | 0.71 | 0.676 | 0.697 | 0.602 | 0.581 | 1.04 | 0.851 | 1.05 | 0.797 | 0.948 | 1.07 | 1.08 | 0.934 | 0.998 | – | – | – | – | –
3 | COR-L 105 | 0.727 | 0.635 | 0.639 | 0.58 | 0.279 | 0.342 | 0.381 | 0.407 | 0.358 | 0.503 | 0.512 | 0.637 | 0.524 | 0.378 | – | – | – | – | –
4 | Calu-6 | 0.846 | 0.801 | 0.909 | 0.763 | 0.753 | 1.07 | 1.06 | 1.08 | 0.951 | 0.887 | 0.951 | 1.03 | 1.02 | 0.906 | – | – | – | – | –
5 | ChaGo-K-1 | – | 1.07 | 1.19 | 1.09 | 1.09 | – | – | – | – | – | 1.04 | 0.863 | 0.956 | 0.738 | 0.703 | 0.805 | 0.926 | 0.942 | 0.882
6 | EBC-1 | 0.181 | 0.179 | 0.178 | 0.174 | 0.18 | 0.203 | 0.214 | 0.18 | 0.208 | 0.542 | 0.561 | 0.539 | 0.534 | 0.455 | – | – | – | – | –
7 | IA-LM | 0.823 | 0.98 | 0.713 | 0.881 | 0.644 | 0.876 | 0.768 | 0.47 | 0.674 | 0.787 | 0.788 | 0.893 | 0.88 | 0.839 | – | – | – | – | –
8 | LCLC-103H | – | 0.93 | 0.934 | 0.963 | 0.931 | – | – | – | – | – | 1.03 | 1.13 | 1.06 | 1.04 | 0.61 | 0.575 | 0.791 | 0.836 | 0.727
9 | NCI-H441 | 0.681 | 0.861 | 0.803 | 0.689 | 0.721 | – | – | – | – | – | 0.628 | 0.45 | 0.379 | 0.657 | 1.17 | – | 1.15 | 0.856 | 1.14
10 | NCI-H520 | 0.726 | 0.759 | 0.863 | 0.812 | 0.745 | 0.809 | 0.894 | 0.878 | 0.827 | 0.699 | 0.388 | 0.59 | 0.54 | 0.416 | – | – | – | – | –
11 | NCI-H522 | – | – | – | – | – | – | – | – | – | – | – | – | – | – | – | 0.731 | 0.845 | 1.07 | 0.612
12 | NCI-H661 | 0.979 | 1.15 | 1.29 | 1.05 | 0.762 | 0.418 | 0.613 | 0.558 | 0.577 | 0.703 | 0.756 | 0.674 | 0.618 | 0.482 | – | – | – | – | –
13 | NCI-H1299 | 0.952 | 1.03 | 0.893 | 0.944 | 0.916 | 0.984 | 0.975 | 0.982 | 0.988 | 1.05 | 1.04 | 1.02 | 1.01 | 0.996 | – | – | – | – | –
14 | NCI-H1395 | – | – | – | – | – | 1.03 | 0.972 | 1.1 | 0.991 | – | – | – | – | – | – | 0.364 | 0.428 | 0.383 | 0.414
15 | NCI-H1563 | 0.881 | 0.874 | 0.861 | 0.789 | 0.774 | 0.873 | 1.04 | 0.896 | 0.882 | 0.952 | 0.741 | 0.826 | 0.902 | 0.834 | – | – | – | – | –
16 | NCI-H1648 | – | – | – | – | – | – | – | – | – | – | – | – | – | – | – | 0.921 | 0.612 | 0.643 | 0.658
17 | NCI-H1650 | 0.977 | 0.795 | 0.854 | 0.9 | 0.596 | 0.761 | 0.74 | 0.708 | 0.698 | 0.203 | 0.206 | 0.223 | 0.192 | 0.243 | – | – | – | – | –
18 | NCI-H2009 | 1.09 | 1.05 | 1.05 | 1.03 | 0.959 | 0.993 | 1.04 | 0.903 | 0.881 | 0.754 | 0.968 | 1.06 | 1.04 | 1.08 | – | – | – | – | –
19 | NCI-H2023 | 0.539 | 0.419 | 0.491 | 0.633 | 0.281 | 0.715 | 0.93 | 1.17 | 0.666 | 0.135 | 0.712 | 0.969 | 1.1 | 0.913 | – | – | – | – | –
20 | NCI-H2228 | 0.603 | 0.342 | 0.462 | 0.379 | 0.297 | 1.3 | 1.07 | 0.801 | 0.874 | 0.841 | 1 | 1.09 | 1.01 | 0.801 | – | – | – | – | –
21 | NCI-H2342 | – | – | – | – | – | – | – | – | – | – | – | – | – | – | 0.421 | 0.408 | 0.381 | 0.447 | 0.394
22 | SK-LU-1 | – | 0.814 | 0.992 | 1.07 | 0.859 | 0.798 | 0.789 | 0.915 | 0.823 | – | 1.04 | 1.05 | 1.2 | 1.2 | – | – | – | – | –
23 | SK-MES-1 | 0.95 | 0.974 | 1.08 | 0.806 | 0.731 | 0.543 | 0.5 | 0.467 | 0.448 | – | – | – | – | – | – | – | – | – | –
24 | SW 900 | – | – | – | – | – | – | – | – | – | – | – | – | – | – | – | 0.549 | 0.549 | 0.591 | 0.466
25 | SW 1573 | 0.762 | 0.724 | 0.856 | 0.829 | 0.623 | 1.06 | 0.906 | 1.05 | 1.12 | 1.01 | 0.892 | 0.953 | 1.18 | 1.01 | – | – | – | – | –
